# Laboratory results published in the NIST ThermoML archive (doi:10.1021/je025641j).
# Numbers after ± are expanded uncertainties.
# Experiment: molar enthalpy of vaporization or sublimation
# Details: 298.15 K; Crystal; Static calorimetry
row,molar enthalpy [kcal/mol],SMILES
1,23.5 ± 0.43,"COc1cccc(OC)c1O [1,3-dimethoxy-2-hydroxybenzene]"
2,24.2 ± 0.717,"COc1cc(O)cc(OC)c1 [3,5-dimethoxyphenol]"
3,22.6 ± 0.43,COc1ccc(O)cc1 [4-methoxyphenol]

# Same assay, conditions: 298.15 K; Liquid; Static calorimetry
row,molar enthalpy [kcal/mol],SMILES
1,18.3 ± 0.406,"COc1cccc(O)c1OC [2,3-dimethoxyphenol]"
2,15 ± 0.263,COc1ccccc1O [2-methoxyphenol]
3,18.1 ± 0.43,COc1cccc(O)c1 [3-methoxyphenol]
